This note sets out measurements from patent US9771369B2, “Compounds and methods for kinase modulation, and indications therefor” (Plexxikon Inc., priority 2014, dated 2017).

One test deals with c-kit mutant D816V (Homo sapiens (Human), UniProt P10721, D816V/DEL694-753). Briefly: c-Kit mutant D816V biochemical assay (AlphaScreen kinase activity). The protocol:
The c-kit mutant D816V (or kinase domain thereof) is an active kinase in AlphaScreen. IC50 values are determined with respect to inhibition of c-Kit mutant D816V kinase activity, where inhibition of phosphorylation of a peptide substrate is measured as a function of compound concentration. Compounds to be tested were dissolved in DMSO to a concentration of 30 mM. These were diluted […] of DMSO (4 mM) and 1 μl was added to an assay plate. These were then serially diluted 1:3 (50 μl to […] DMSO) for a total of 8 points. Plates were prepared such that each kinase reaction is […] in 1× kinase buffer (25 mM HEPES, pH 7.2, 8 mM MgCl2, 2 mM MnCl2, 50 mM NaCl, 0.01% Brij, 1 mM DTT, 0.01% BSA), 5% DMSO and 10 μM ATP. Substrate was 30 nM biotin-(E4Y)10 (EMD Millipore, Cat#12-440). C-kit mutant D816V kinase was at 0.75 ng per sample. After incubation of the kinase reaction for 30 minutes at room temperature, 5 μl of donor beads (Streptavidin coated beads (Perkin Elmer Life Science) final concentration 7.5 μg/ml) in stop buffer (25 mM Hepes pH 7.5, 100 mM EDTA, 0.01% BSA) was added, the sample was mixed and incubated for 30 minutes at room temperature before adding […] of acceptor beads (PY30 coated beads (Perkin Elmer Life Science) final concentration 7.5 μg/ml) in stop buffer. The samples were incubated for 60 minutes at room temperature and the signal per well was read on EnVision reader. Phosphorylated substrate results in binding of the PY30 antibody and association of the donor and acceptor beads such that signal correlates with kinase activity. The signal vs. compound concentration was used to determine the IC50.
Recombinant c-kit mutant D816V (residues 551-934, kinase insertion domain residues 694-753 deleted) with a 6×-histidine N-terminal tag (SEQ ID NO: 3) was expressed in E. coli Arctic Express (DE3) RIL (Stratagene). Cells were grown in Terrific Broth (TB) media to an OD600 of 0.6 at 37° C. at which temperature was reduced to 10° C., protein was induced with 1.0 mM IPTG for 18 hours and harvested by centrifugation at 8000×g for 30 minutes. Cells were re-suspended in 0.1M KPO4 pH 8.0, 250 mM NaCl, 10% Glycerol, 0.75% NP-40, 25 mM Imidazole, 5 mM BME with 0.2 mg/ml Lysosyme, 2.0 mM PMSF, 25 μg/ml DNAse I, incubated in ice for 30 minutes and lyzed with a cell disruptor (MicroFluidics). The lysate was clarified by centrifugation at 30,000×g for 2 hours. The protein was captured with Talon resin (Clontech). Contaminating proteins were washed off with 25 mM Tris-HCl pH 8.3, 250 mM NaCl, 15% Glycerol, 1% Triton X-100, and protein eluted using 100 mM EDTA. The protein was further purified using Gel Filtration column 26/600 Superdex 300 (GE) in 50 mM Tris-HCl , pH 8.0, 250 mM NaCl, 15% Glycerol, 5 mM BME. The protein was aliquoted and flash-frozen in liquid Nitrogen.
A general note: Alpha assays give light when donor and acceptor beads are brought close together.

In test [1] the test system is BaF3-FL KIT D816V or BaF3-FL KIT V560G/D816V cell line. The test can be described thus: Cell-based assays of c-Kit mutant kinase activity (cell proliferation, ATPlite). The settings on record: at least one of the c-kit cell assays of Example 7. The protocol: The c-Kit mutant D816V inhibitors were assessed using an engineered BaF3-FL KIT D816V or BaF3-FL KIT V560G/D816V cell line. The BaF3-FL KIT D816V cell lines were created by introduction of KIT mutant (D816V) full length constructs that render the cells dependent on the introduced kinase for growth. Inhibitors of c-Kit mutant D816V kinase reduce or eliminate the mediated c-kit mutant D816V kinase activation, resulting in reduced cell proliferation of the BaF3-FL Kit mutant D816V cells. This inhibition is measured by the effect of compound concentration on cell growth to assess IC50 values. BaF3-FL KIT D816V cells were seeded at 1×10^4 cells per well of a 96 well cell culture plate in 50 μl of cell culture medium of RPMI Medium 1× (Invitrogen #11875-093) supplemented with 10% FBS (Invitrogen #10438), 1% Non Essential Amino Acids (Invitrogen #11140), 1% Penicillin Streptomycin (Invitrogen #15140), 1% L-Glutamine (Invitrogen #25030-081). Compounds were dissolved in DMSO at a concentration of 5 mM and were serially diluted 1:3 for a total of eight points and added to the cells to a final maximum concentration of 10 μM in 100 μl cell culture medium (final concentration 0.2% DMSO). Cells were also treated with Dasatinib as a positive control. The cells were incubated at 37° C., 5% CO2 for three days. ATPlite Buffer (Perkin Elmer #6016739) and substrate were equilibrated to room temperature, and enzyme/substrate Recombinant Firefly Luciferase/D-Luciferin was reconstituted. The cell plates were equilibrated to room temperature for 30 minutes, then lysed by addition of 25 μL per well of the ATPlite Reagent. The plate was mixed for 5 minutes on a plate shaker to lyse the cells. The plates were read on a Tecan Safire using Luminescence protocol modified to read 0.1s per well. The luminescence reading assesses the ATP content, which correlates directly with cell number such that the reading as a function of compound concentration is used to determine the IC50 value.
Plasmids P75635 and P75565 were engineered for mammalian cell expression. In both plasmids, full-length human v-kit Hardy-Zuckerman 4 feline sarcoma viral oncogene homolog gene (NCBI accession NM_000222, KIT, residues M1-V976) was subcloned into the pCI-Neo vector (Promega E1841). Plasmid P75635 contains the mutation of residue Aspartic acid 816 to Valine. Plasmid P75565 contains the double mutation of residues Valine 560 to Glycine and Aspartic acid 816 to Valine. The pCI-neo Mammalian Expression Vector carries the human cytomegalovirus (CMV) immediate-early enhancer/promoter region to promote constitutive expression of KIT and contains the neomycin phosphotransferase gene, a selectable marker.
It is understood that the results of these assays may vary as assay conditions are varied. Inhibition levels determined under the conditions described herein represent a relative activity for the compounds tested under the specific conditions employed. The cell based assays are likely to show variability due to the complexity of the system and the sensitivity thereof to any changes in the assay conditions. […] In some instances, the compounds were not tested in all of the assays, or assay results were not valid.
(ATP-based viability assays read luminescence as a measure of living cells.)

Some results are limits rather than exact numbers.

c-kit mutant D816V, sequence (P10721 other isoform, or with tags, fused parts or gaps D816V/del 694-753): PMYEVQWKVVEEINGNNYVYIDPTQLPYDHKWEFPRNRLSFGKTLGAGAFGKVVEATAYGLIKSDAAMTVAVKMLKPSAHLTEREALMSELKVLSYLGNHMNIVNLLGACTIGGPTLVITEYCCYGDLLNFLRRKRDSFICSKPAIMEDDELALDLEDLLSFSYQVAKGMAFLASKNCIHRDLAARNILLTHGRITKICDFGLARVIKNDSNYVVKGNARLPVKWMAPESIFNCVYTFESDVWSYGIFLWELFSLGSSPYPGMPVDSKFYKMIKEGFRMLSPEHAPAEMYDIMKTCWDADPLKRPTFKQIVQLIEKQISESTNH

The IC50 is the concentration that gives 50% inhibition. A higher IC50 goes with a need for much substance. `Cc1nc(C2CCN(c3ncnc4[nH]c(-c5cnn(C(F)F)c5)cc34)CC2)[nH]c1-c1ccc(F)cc1` [P-3107, 6-[1-(difluoromethyl)pyrazol-4-yl]-4-[4-[5-(4-fluorophenyl)-4-methyl-1H-imidazol-2-yl]-1-piperidyl]-7H-pyrrolo[2,3-d]pyrimidine]: the IC50 was 0.0001 to 1 µM at c-kit mutant D816V and less than 10 µM in test [1].

As for `COc1ccc(-c2[nH]c(C3CCN(c4ncnc5[nH]c(-c6cnn(C(F)F)c6)cc45)CC3)nc2C)cc1` [P-3108, 6-[1-(difluoromethyl)pyrazol-4-yl]-4-[4-[5-(4-methoxyphenyl)-4-methyl-1H-imidazol-2-yl]-1-piperidyl]-7H-pyrrolo[2,3-d]pyrimidine], the figures for the IC50 (against c-kit mutant D816V; in test [1]) were 0.0001 to 1 µM and less than 10 µM, respectively.

Consider `Cc1nc(C2CCN(c3ncnc4[nH]c(-c5ccc(F)cc5)cc34)CC2)[nH]c1-c1ccc2c(c1)OC(F)(F)O2` [P-3109, 4-[4-[5-(2,2-difluoro-1,3-benzodioxol-5-yl)-4-methyl-1H-imidazol-2-yl]-1-piperidyl]-6-(4-fluorophenyl)-7H-pyrrolo[2,3-d]pyrimidine], for which the IC50 against c-kit mutant D816V was 0.0001 to 1 µM; in test [1], less than 10 µM.

On to `Cc1nc(C2CCN(c3ncnc4[nH]c(-c5ccc(C#N)cc5)cc34)CC2)[nH]c1-c1ccc2c(c1)OC(F)(F)O2` [P-3110, 4-[4-[4-[5-(2,2-difluoro-1,3-benzodioxol-5-yl)-4-methyl-1H-imidazol-2-yl]-1-piperidyl]-7H-pyrrolo[2,3-d]pyrimidin-6-yl]benzonitrile], for which the IC50 at c-kit mutant D816V is 0.0001 to 1 µM; in test [1], less than 10 µM.

For `COc1cc(-c2cc3c(N4CCC(c5nc(C)c(-c6ccc7c(c6)OC(F)(F)O7)[nH]5)CC4)ncnc3[nH]2)ccn1` [P-3111, 4-[4-[5-(2,2-difluoro-1,3-benzodioxol-5-yl)-4-methyl-1H-imidazol-2-yl]-1-piperidyl]-6-(2-methoxy-4-pyridyl)-7H-pyrrolo[2,3-d]pyrimidine], the values for the IC50 (against c-kit mutant D816V; in test [1]) were 0.0001 to 1 µM and less than 10 µM, respectively.

With `COc1ccc(-c2[nH]c(C3CCN(c4ncnc5[nH]c(-c6ccc(C#N)cc6)cc45)CC3)nc2C)cn1` [P-3112, 4-[4-[4-[5-(6-methoxy-3-pyridyl)-4-methyl-1H-imidazol-2-yl]-1-piperidyl]-7H-pyrrolo[2,3-d]pyrimidin-6-yl]benzonitrile], the IC50 against c-kit mutant D816V is 0.0001 to 1 µM; in test [1] it was less than 10 µM.

As to `Cc1nc(C2CCN(c3ncnc4[nH]c(-c5ccc(C#N)cc5)cc34)CC2)[nH]c1-c1ccc(OC(F)F)cc1` [P-3113, 4-[4-[4-[5-[4-(difluoromethoxy)phenyl]-4-methyl-1H-imidazol-2-yl]-1-piperidyl]-7H-pyrrolo[2,3-d]pyrimidin-6-yl]benzonitrile], the IC50 on c-kit mutant D816V is 0.0001 to 1 µM; in test [1] it was less than 10 µM.

On to `COc1cccc(-c2[nH]c(C3CCN(c4ncnc5[nH]c(-c6cnn(C(F)F)c6)cc45)CC3)nc2C)c1` [P-3114, 6-[1-(difluoromethyl)pyrazol-4-yl]-4-[4-[5-(3-methoxyphenyl)-4-methyl-1H-imidazol-2-yl]-1-piperidyl]-7H-pyrrolo[2,3-d]pyrimidine], for which the IC50 on c-kit mutant D816V is 0.0001 to 1 µM; in test [1], less than 10 µM.

On to `Cc1nc(C2CCN(c3ncnc4[nH]c(-c5cnn(C(F)F)c5)cc34)CC2)[nH]c1-c1ccc(OC(F)F)cc1` [P-3115, 4-[4-[5-[4-(difluoromethoxy)phenyl]-4-methyl-1H-imidazol-2-yl]-1-piperidyl]-6-[1-(difluoromethyl)pyrazol-4-yl]-7H-pyrrolo[2,3-d]pyrimidine], for which the values for the IC50 (against c-kit mutant D816V; in test [1]) were 0.0001 to 1 µM and less than 10 µM, respectively.

For the molecule `Cc1nc(C2CCN(c3ncnc4[nH]c(-c5cnn(C(F)F)c5)cc34)CC2)[nH]c1-c1ccc(OC(F)(F)F)cc1` [P-3116, 6-[1-(difluoromethyl)pyrazol-4-yl]-4-[4-[4-methyl-5-[4-(trifluoromethoxy)phenyl]-1H-imidazol-2-yl]-1-piperidyl]-7H-pyrrolo[2,3-d]pyrimidine], the IC50 on c-kit mutant D816V was 0.0001 to 1 µM; in test [1], less than 10 µM.

For the molecule `COc1cc(-c2cc3c(N4CCC(c5nc(C)c(-c6ccc(C)s6)[nH]5)CC4)ncnc3[nH]2)ccn1` [P-3117, 6-(2-methoxy-4-pyridyl)-4-[4-[4-methyl-5-(5-methyl-2-thienyl)-1H-imidazol-2-yl]-1-piperidyl]-7H-pyrrolo[2,3-d]pyrimidine], the results for the IC50 (against c-kit mutant D816V; in test [1]) were 0.0001 to 1 µM and less than 10 µM, respectively.

As to `Cc1ccc(-c2[nH]c(C3CCN(c4ncnc5[nH]c(-c6ccc(F)cc6)cc45)CC3)nc2C)s1` [P-3118, 6-(4-fluorophenyl)-4-[4-[4-methyl-5-(5-methyl-2-thienyl)-1H-imidazol-2-yl]-1-piperidyl]-7H-pyrrolo[2,3-d]pyrimidine], the IC50 on c-kit mutant D816V was 0.0001 to 1 µM; in test [1] it was less than 10 µM.

As to `Cc1nc(C2CCN(c3ncnc4[nH]c(-c5ccc(F)cc5)cc34)CC2)[nH]c1-c1ccc(Cl)s1` [P-3119, 4-[4-[5-(5-chloro-2-thienyl)-4-methyl-1H-imidazol-2-yl]-1-piperidyl]-6-(4-fluorophenyl)-7H-pyrrolo[2,3-d]pyrimidine], the IC50 against c-kit mutant D816V is 0.0001 to 1 µM; in test [1], less than 10 µM.

For the molecule `Cc1cc2c(N3CCC(c4nc(C)c(-c5ccc6c(c5)OCO6)[nH]4)CC3)ncnc2[nH]1` [P-3120, 4-[4-[5-(1,3-benzodioxol-5-yl)-4-methyl-1H-imidazol-2-yl]-1-piperidyl]-6-methyl-7H-pyrrolo[2,3-d]pyrimidine], the IC50 at c-kit mutant D816V was 1 to 10 µM; in test [1] it was less than 10 µM.

In the case of `Cc1cc2c(N3CCC(c4nc(C)c(-c5ccc6c(c5)OCCO6)[nH]4)CC3)ncnc2[nH]1` [P-3121, 4-[4-[5-(2,3-dihydro-1,4-benzodioxin-6-yl)-4-methyl-1H-imidazol-2-yl]-1-piperidyl]-6-methyl-7H-pyrrolo[2,3-d]pyrimidine], the IC50 against c-kit mutant D816V is 0.0001 to 1 µM; in test [1], less than 10 µM.
